Reference: patent US7045529B2, “Imidazopyrimidinyl and imidazopyri dinyl derivatives” (Bristol-Myers Squibb Company, priority 1999, dated 2006)

What was measured:
[1] = tested on: “anxiogenic” effects of CRF; conditions: cited from earlier work; for effect on the “anxiogenic” effects / actions of CRF in the conflict test: rats, literature (Britton et al.)

Compound	melting point [°C]	effect on the “anxiogenic” effects / actions of CRF in the conflict test [1]	behavioral activity alone in the operant conflict test ([1]; compound alone, without CRF, literature (Britton et al. 1988))
CCc1nc2c(-c3ccc(OC(F)(F)F)cc3Cl)ncnc2n1C(C1CC1)C1CC1 [Example 8, 6-(2-Chloro-4-trifluoromethoxyphenyl)-9-dicyclopropylmethyl-8-ethylpurine]	119 to 120		
CCCC(C)n1c(CC)nc2c(-c3ccc(OC(F)F)cc3Cl)ncnc21 (centres unmarked) [Example 10, 6-(2-Chloro-4-difluoromethoxyphenyl)-8-ethyl-9-(2-pentyl)purine]	99 to 100		
CNC(=O)c1cc2c(cn1)[nH]c1ccccc12 [FG7142]		enhanced the actions of CRF	
CCOC(=O)c1ncn2c1CN(C)C(=O)c1cc(F)ccc1-2 [Ro15-1788]		reversed the effects of CRF in a dose-dependent manner	without behavioral activity alone
